Experimental data from BindingDB's records for doi:10.1016/j.bmcl.2010.10.020 (Incyte, 2010).

How the values were obtained:
[1] = Antagonist activity at mouse CCR2 assessed as inhibition of MCP1 induced chemotaxis after 30 mins
[2] = Antagonist activity at human CCR2 assessed as inhibition of MCP1 induced chemotaxis after 30 mins

SMILES	IC50 [1] [nM]	IC50 [2] [nM]
O=C(CNC(=O)c1cccc(C(F)(F)F)c1)N[C@H]1CN([C@H]2CC[C@@H](c3ccccc3)CC2)C[C@@H]1O [N-(2-((3S,4S)-4-hydroxy-1-(cis-4-phenylcyclohexyl)pyrrolidin-3-ylamino)-2-oxoethyl)-3-(trifluoromethyl)benzamide]	265	12
CCO[C@H]1CN([C@H]2CC[C@@](O)(c3ccccc3)CC2)C[C@@H]1NC(=O)CNC(=O)c1cccc(C(F)(F)F)c1 [N-(2-((3S,4S)-4-ethoxy-1-(cis-4-hydroxy-4-phenylcyclohexyl)pyrrolidin-3-ylamino)-2-oxoethyl)-3-(trifluoromethyl)benzamide]	444	3
CCO[C@H]1CN([C@H]2CC[C@@](O)(c3ccc(C)cc3)CC2)C[C@@H]1NC(=O)CNC(=O)c1cccc(C(F)(F)F)c1 [N-(2-((3S,4S)-4-ethoxy-1-(cis-4-hydroxy-4-p-tolylcyclohexyl)pyrrolidin-3-ylamino)-2-oxoethyl)-3-(trifluoromethyl)benzamide]	13	1.4

More lines, now with the values ahead:

IC50 [1] [nM]	IC50 [2] [nM]	SMILES
14	6.5	CCO[C@H]1CN([C@H]2CC[C@@H](c3ccccc3)CC2)C[C@@H]1NC(=O)CNC(=O)c1cccc(C(F)(F)F)c1 [N-(2-((3S,4S)-4-ethoxy-1-(cis-4-phenylcyclohexyl)pyrrolidin-3-ylamino)-2-oxoethyl)-3-(trifluoromethyl)benzamide]
158	1.8	CCCO[C@H]1CN([C@H]2CC[C@@H](c3ccccc3)CC2)C[C@@H]1NC(=O)CNC(=O)c1cccc(C(F)(F)F)c1 [N-(2-oxo-2-((3S,4S)-1-(cis-4-phenylcyclohexyl)-4-propoxypyrrolidin-3-ylamino)ethyl)-3-(trifluoromethyl)benzamide]
